Consider eight compounds from patent US11192850B2, “N-aryl oxamic acids” (Purdue Research Foundation, priority 2020, dated 2021).

Series [1] in a line: Mouse liver microsomal stability. In kind it is in vitro ADME. Conditions: for Microsome Stability, % remaining: Mouse, after 60 min at 37° C. The text has this: A sufficient oral dosage must survive first-pass clearance through the liver before reaching its biological target. The majority of drugs/xenobiotics undergo phase I metabolism, mediated by the cytochrome P450 (CYP450) family of heme-thiolate proteins predominantly in the liver. Although mouse liver microsomal (MLM) stability studies are not a perfect substitute for in vivo metabolic clearance studies, but they serve as an initial […] model system that can correlate well with human liver microsomal (HLM) stability and in vivo activity in mice. To this end, compounds 4h, 4k, 4t, 4u, and 4v were allowed to react with mouse liver microsomes and the fraction of remaining parent compound over time was determined. […] Incorporation of fluorine into drug candidates generally improves their potency, bioavailability, and metabolic stability. In addition, fluorinated molecules are in general, nontoxic and mimic the corresponding nonfluorinated analogs in their stereoelectronic properties, so the drug's affinity for the receptor either remains the same or, in some cases increases. […] So, the loss of compounds tested here is attributed only to oxidative Phase I metabolism. The high microsomal stability of these compounds could be exploited pharmacologically.
Mouse (CD-1) pooled liver microsomes purchased from Fisher Scientific, IL, USA (0.5 mg/mL, Corning Gentest 3P, cat#452702), and the assay procedures were followed as previously reported. A solution of mouse liver microsomes and 1 mM of co-factor NADPH in 1 ml of phosphate buffer saline (pH=7.4) was prewarmed to 37° C. in an Eppendorf tube. Then 10 μL of a test solution (10 mM DMSO stock) was added to initiate the reaction. Verapamil-HCl was used as a positive control. […] The incubation mixture was kept at 37° C., and 50 μL aliquots were taken at times of 0, 5, 10, 15, 30 or 60 min. Each of the aliquot was quenched using 200 μL of ice-cold acetonitrile. The mixtures were vigorously vortexed and centrifuged to remove the precipitated protein and the supernatants were analyzed by an Agilent Technologies 6470 series, triple quadrupole LC/MS spectrometer to quantitate the remaining parent compound. The percent of the parent compound remaining was calculated from the formula: % parent compound remaining=(concentration at 60 min/concentration at 0 min)*100

The target in a further series is PTPγ (Homo sapiens (Human), UniProt P23470). Nature of the series: pNPP inhibition assay against PTPγ. Type of series: biochemical. The note with it: pNPP at Km of the PTP.
PTPγ, sequence (P23470 763-1445): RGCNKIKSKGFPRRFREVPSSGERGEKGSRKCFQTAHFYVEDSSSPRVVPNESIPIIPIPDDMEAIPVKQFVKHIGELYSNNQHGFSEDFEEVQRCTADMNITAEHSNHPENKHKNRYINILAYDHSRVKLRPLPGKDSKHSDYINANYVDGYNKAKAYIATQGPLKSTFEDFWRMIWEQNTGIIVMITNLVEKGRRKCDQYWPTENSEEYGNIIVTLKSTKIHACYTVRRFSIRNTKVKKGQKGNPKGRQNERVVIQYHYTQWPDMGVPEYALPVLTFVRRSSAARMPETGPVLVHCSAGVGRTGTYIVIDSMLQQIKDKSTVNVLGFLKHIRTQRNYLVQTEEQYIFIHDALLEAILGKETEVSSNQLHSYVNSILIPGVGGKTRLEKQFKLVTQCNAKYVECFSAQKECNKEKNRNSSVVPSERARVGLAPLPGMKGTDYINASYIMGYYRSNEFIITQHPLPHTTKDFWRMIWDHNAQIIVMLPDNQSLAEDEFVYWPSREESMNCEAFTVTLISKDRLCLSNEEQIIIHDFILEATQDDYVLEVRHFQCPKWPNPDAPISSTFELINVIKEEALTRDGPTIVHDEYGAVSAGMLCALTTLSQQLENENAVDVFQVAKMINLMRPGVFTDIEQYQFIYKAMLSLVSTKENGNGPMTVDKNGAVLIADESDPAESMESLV
For the next series, the target named is SHP1 (Homo sapiens (Human), UniProt P29350). Nature of the series: pNPP inhibition assay against SHP1. Type of series: biochemical.
SHP1, sequence (P29350 244-515): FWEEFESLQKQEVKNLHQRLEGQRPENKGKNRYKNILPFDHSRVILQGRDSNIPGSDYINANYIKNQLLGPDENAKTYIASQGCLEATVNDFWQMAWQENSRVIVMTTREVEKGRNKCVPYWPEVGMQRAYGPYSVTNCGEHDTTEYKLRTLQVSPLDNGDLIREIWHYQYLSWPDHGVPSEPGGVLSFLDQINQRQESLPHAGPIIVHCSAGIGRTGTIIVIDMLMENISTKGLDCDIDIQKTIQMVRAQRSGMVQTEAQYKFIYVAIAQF
For another series, the target named is SHP2 (Homo sapiens (Human), UniProt Q06124). Description: pNPP inhibition assay against SHP2. Type of series: biochemical.
SHP2, sequence (Q06124 247-517): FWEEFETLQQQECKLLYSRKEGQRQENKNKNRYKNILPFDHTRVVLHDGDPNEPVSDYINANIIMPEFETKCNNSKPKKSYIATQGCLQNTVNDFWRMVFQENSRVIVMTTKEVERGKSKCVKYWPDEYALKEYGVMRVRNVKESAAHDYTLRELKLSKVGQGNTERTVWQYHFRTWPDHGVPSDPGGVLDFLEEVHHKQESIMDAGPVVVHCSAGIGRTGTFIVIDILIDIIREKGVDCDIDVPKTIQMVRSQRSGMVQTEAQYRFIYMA
In another series the target is LYP (Homo sapiens (Human), UniProt Q9Y2R2). Nature of the series: pNPP inhibition assay against LYP. Type of series: biochemical. The note with it: pNPP at Km of the PTP.
LYP, sequence (Q9Y2R2 24-289, species assumed): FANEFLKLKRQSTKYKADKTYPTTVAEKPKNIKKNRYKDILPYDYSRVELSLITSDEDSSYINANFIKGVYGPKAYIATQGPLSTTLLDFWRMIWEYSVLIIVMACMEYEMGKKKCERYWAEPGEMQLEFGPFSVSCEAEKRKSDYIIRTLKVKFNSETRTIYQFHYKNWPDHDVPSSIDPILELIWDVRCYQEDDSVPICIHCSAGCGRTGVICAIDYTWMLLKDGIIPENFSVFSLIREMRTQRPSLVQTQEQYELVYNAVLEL
In the next series the target is mPTPA (Mycobacterium tuberculosis (strain ATCC 25618 / H37Rv), UniProt P9WIA1). Description: biochemical.
The target of another series is MKP5 (Homo sapiens (Human), UniProt Q9Y6W6). Description: pNPP inhibition assay against MKP5. In kind it is biochemical. The note with it: pNPP at Km of the PTP.
MKP5, sequence (Q9Y6W6 321-464, species assumed): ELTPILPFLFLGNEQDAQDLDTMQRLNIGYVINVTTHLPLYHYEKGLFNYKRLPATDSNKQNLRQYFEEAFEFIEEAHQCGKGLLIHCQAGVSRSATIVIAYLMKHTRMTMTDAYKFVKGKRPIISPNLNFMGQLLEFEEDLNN
For another series, the target named is TC-PTP (Homo sapiens (Human), UniProt P17706). Nature of the series: pNPP inhibition assay against TC-PTP. Conditions: pNPP at Km of the PTP. Type of series: biochemical.
TC-PTP, sequence (P17706 5-275): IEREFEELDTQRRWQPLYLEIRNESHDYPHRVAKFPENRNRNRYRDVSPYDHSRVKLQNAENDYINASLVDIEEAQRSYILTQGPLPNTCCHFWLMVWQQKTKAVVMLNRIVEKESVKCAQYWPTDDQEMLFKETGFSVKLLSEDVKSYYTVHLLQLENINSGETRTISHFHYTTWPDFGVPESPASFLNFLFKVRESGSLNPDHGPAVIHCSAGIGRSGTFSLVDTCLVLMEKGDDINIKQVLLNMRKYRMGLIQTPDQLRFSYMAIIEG
In another series the target is PTP-PEST (Homo sapiens (Human), UniProt Q05209). Nature of the series: pNPP inhibition assay against PTP-PEST. In kind it is biochemical. Conditions: pNPP at Km of the PTP.
PTP-PEST, sequence (Q05209 28-293, species assumed): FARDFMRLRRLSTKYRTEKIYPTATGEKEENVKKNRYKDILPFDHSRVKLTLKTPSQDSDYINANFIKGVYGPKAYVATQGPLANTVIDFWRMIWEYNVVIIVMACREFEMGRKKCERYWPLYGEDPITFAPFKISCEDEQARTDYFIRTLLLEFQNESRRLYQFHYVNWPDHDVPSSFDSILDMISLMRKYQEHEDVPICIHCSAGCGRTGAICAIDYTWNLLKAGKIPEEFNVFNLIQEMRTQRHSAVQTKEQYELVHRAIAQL
The next series addresses PTP1B (Homo sapiens (Human), UniProt P18031). Nature of the series: pNPP inhibition assay against PTP1B. In kind it is biochemical.
Another series addresses mPTPB (Mycobacterium tuberculosis (strain ATCC 25618 / H37Rv), UniProt I6WXK4). In kind it is biochemical.
In a further series the target is PTPμ (Homo sapiens (Human), UniProt P28827). Description: pNPP inhibition assay against PTPμ. In kind it is biochemical. The note with it: pNPP at Km of the PTP.
PTPμ, sequence (P28827 900-1154): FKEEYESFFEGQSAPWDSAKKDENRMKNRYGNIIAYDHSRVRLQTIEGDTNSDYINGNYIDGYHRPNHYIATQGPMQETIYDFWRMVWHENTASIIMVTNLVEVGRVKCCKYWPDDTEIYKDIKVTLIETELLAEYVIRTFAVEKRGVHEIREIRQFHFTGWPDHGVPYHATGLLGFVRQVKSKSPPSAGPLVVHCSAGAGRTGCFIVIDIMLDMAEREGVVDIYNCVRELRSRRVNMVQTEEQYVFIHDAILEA
The nature of series [2]: Kinetic solubility in pH 7.4 PBS. In kind it is physicochemical. Conditions: pH 7.4 PBS buffer.
Procedure: The resulting mixture was stirred at 500 rpm for 90 minutes and then filtered using 0.45 μm PVDF membrane filter. After filtration, the concentration of corresponding compound was determined by HPLC, comparing the AUC obtained with that from a standard solution of the compound. Data represent the mean (t standard deviation, SD) of three separate experiments, performed in triplicate.
The target in the next series is VHR (Homo sapiens (Human), UniProt P51452). Description: pNPP inhibition assay against VHR. The note with it: pNPP at Km of the PTP. In kind it is biochemical.
VHR, sequence (P51452 28-179, species assumed): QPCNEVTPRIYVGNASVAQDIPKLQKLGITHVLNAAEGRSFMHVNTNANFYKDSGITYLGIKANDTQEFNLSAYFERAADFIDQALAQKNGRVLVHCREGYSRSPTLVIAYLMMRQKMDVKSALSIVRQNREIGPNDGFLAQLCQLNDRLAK
A further series concerns the target PTPα (Homo sapiens (Human), UniProt P18433). Description: pNPP inhibition assay against PTPα. In kind it is biochemical. Conditions: pNPP at Km of the PTP.
The next series concerns the target CD45 (Homo sapiens (Human), UniProt P08575). Description: pNPP inhibition assay against CD45. Type of series: biochemical. The note with it: pNPP at Km of the PTP.
Another series addresses DEP-1 (Homo sapiens (Human), UniProt Q12913). Nature of the series: pNPP inhibition assay against DEP-1. Type of series: biochemical. Conditions: pNPP at Km of the PTP.
Another series deals with HePTP (Homo sapiens (Human), UniProt P35236). Description: pNPP inhibition assay against HePTP. The note with it: pNPP at Km of the PTP. Type of series: biochemical.
HePTP, sequence (P35236 97-350): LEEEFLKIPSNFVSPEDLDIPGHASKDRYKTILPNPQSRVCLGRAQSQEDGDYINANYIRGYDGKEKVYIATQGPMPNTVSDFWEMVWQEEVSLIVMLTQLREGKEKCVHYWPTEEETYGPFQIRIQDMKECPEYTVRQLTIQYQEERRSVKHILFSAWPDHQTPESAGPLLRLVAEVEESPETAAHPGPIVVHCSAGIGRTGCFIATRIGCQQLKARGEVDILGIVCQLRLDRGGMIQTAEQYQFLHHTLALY
Another series addresses CDC14A (Homo sapiens (Human), UniProt Q9UNH5). Nature of the series: pNPP inhibition assay against CDC14A. In kind it is biochemical. The note with it: pNPP at Km of the PTP.
The next series deals with PTPβ (Homo sapiens (Human), UniProt P23467). Description: biochemical. The note with it: pNPP at Km of the PTP.
The target in another series is PTP-MEG2 (Homo sapiens (Human), UniProt P43378). Nature of the series: pNPP inhibition assay against PTP-MEG2. In kind it is biochemical. The note with it: pNPP at Km of the PTP.
PTP-MEG2, sequence (P43378 303-574): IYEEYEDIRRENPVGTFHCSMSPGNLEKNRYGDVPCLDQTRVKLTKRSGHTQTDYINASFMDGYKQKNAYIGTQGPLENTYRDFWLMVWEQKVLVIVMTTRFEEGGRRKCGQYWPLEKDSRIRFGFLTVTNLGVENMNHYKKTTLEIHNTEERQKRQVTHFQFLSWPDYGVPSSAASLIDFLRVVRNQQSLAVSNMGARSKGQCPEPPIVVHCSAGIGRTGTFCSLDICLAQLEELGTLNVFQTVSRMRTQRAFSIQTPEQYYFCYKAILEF
A further series has as its target STEP (Homo sapiens (Human), UniProt P54829). Nature of the series: pNPP inhibition assay against STEP. In kind it is biochemical. Conditions: pNPP at Km of the PTP.
Another series concerns the target Laforin (Homo sapiens (Human), UniProt O95278). Nature of the series: pNPP inhibition assay against Laforin. Type of series: biochemical. Conditions: pNPP at Km of the PTP.
For another series, the target named is MKP3 (Homo sapiens (Human), UniProt Q16828). Nature of the series: pNPP inhibition assay against MKP3. In kind it is biochemical. The note with it: pNPP at Km of the PTP.
Series [3] can be described thus: Log D by shake flask method. Type of series: physicochemical. Conditions: n-octanol and pH 7.4 PBS.
Procedure: To determine the lipophilicity of our inhibitors, the Log D at pH 7.4 was measured using the shake flask method. […] The tubes were shaken for 8 hours, centrifuged at 10000 rpm for 5 minutes then n-octanol and phosphate buffered saline layers separated. […] The ratios of AUC of the peaks were used to calculate the Log D in accordance with the equation: Log D=Log10(AUC of octanol layer/AUC of phosphate buffered saline layer)
Another series has as its target FAP-1 (Homo sapiens (Human), UniProt Q12923). Description: pNPP inhibition assay against FAP-1. Type of series: biochemical. Conditions: pNPP at Km of the PTP.
For another series, the target named is LMPTP-1 (Homo sapiens (Human), UniProt P24666). Type of series: biochemical.
LMPTP-1, sequence (P24666 whole entry, looked up): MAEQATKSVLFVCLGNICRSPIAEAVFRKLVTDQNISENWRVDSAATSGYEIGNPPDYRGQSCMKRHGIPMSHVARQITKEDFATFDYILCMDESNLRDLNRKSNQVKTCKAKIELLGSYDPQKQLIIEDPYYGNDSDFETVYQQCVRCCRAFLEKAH
A short description of series [4]: Solubility observed for analogs (qualitative).

Like-named read-outs stand apart in the source and are kept apart here.

PTP1B, sequence (P18031 3-277): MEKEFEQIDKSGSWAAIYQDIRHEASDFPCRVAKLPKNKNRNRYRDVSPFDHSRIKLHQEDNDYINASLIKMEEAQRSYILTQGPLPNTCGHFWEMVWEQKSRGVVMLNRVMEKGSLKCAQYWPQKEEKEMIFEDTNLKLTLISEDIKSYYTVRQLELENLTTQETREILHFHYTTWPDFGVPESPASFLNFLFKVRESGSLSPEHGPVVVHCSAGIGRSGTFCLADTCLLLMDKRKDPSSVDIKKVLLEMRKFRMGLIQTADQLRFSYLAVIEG
mPTPB, sequence (I6WXK4 whole entry, looked up): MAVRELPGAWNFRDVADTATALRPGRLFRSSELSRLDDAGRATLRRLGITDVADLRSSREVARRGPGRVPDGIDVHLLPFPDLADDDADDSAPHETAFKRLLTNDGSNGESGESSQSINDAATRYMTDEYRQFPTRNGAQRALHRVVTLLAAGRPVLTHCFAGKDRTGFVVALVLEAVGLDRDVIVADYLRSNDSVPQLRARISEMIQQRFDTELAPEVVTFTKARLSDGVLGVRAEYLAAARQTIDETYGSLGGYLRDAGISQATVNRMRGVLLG
CDC14A, sequence (Q9UNH5 179-336, species assumed): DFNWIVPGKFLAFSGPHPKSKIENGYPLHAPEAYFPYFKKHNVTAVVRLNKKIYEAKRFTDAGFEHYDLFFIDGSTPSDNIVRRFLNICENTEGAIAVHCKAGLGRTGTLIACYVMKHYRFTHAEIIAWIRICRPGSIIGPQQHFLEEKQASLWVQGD
STEP, sequence (P54829 300-555, species assumed): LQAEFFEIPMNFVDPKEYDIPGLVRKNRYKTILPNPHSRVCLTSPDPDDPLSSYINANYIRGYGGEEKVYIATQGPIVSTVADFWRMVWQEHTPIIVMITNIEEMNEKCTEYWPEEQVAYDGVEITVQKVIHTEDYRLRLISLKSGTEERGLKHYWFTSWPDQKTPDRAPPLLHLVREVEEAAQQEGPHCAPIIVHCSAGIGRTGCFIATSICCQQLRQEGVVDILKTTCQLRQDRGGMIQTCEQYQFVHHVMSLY
DEP-1, sequence (Q12913 1041-1298, species assumed): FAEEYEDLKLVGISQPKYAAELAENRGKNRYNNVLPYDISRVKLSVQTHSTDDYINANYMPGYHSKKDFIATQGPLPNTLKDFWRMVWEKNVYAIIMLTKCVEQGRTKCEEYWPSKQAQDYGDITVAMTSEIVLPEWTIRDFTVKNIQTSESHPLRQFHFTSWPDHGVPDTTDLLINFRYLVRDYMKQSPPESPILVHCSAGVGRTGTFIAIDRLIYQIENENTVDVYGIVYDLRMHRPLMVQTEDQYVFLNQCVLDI
FAP-1, sequence (Q12923 2213-2467, species assumed): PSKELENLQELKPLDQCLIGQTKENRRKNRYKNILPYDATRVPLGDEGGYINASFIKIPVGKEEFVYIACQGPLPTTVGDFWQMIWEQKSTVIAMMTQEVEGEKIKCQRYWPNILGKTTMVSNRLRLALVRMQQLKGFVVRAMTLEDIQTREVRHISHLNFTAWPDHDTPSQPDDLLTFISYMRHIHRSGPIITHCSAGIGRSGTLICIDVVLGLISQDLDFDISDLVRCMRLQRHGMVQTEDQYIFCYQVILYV

One may read the IC50 as the midpoint of a concentration-inhibition curve. As to `O=C(O)C(=O)Nc1ccc(C#Cc2ccc(C(F)(F)F)cc2Cl)cc1` [Compound 4t, 2-((4-((2-chloro-4-(trifluoromethyl)phenyl)ethynyl)phenyl)amino)-2-oxoacetic Acid], the “Microsome Stability, % remaining” value in [1] is on record as 56 ± 1.5%. Further, the IC50 at PTPγ, against SHP1 (pNPP at Km of the PTP), against SHP2 (pNPP at Km of the PTP), at LYP, at mPTPA and against MKP5 was more than 30 µM throughout. The IC50 against TC-PTP, against PTP-PEST and against PTP1B (pNPP at Km of the PTP) was more than 30 µM in each case.
On to `CC(C)(C)c1ccc(C#Cc2ccc(NC(=O)C(=O)O)cc2)cc1` [Compound 4h, 2-((4-((4-(tert-butyl)phenyl)ethynyl)phenyl)amino)-2-oxoacetic Acid], for which, in series [1], the “Microsome Stability, % remaining” value is 27 ± 2.4%. Further, the microsomal stability ranking entry in series [1] (mouse liver microsomes, last time point) was “least stable”. In addition, the IC50 was more than 50 µM at SHP1 (pNPP at Km of the PTP); more than 50 µM against SHP2 (pNPP at Km of the PTP); 0.026 ± 0.005 µM at mPTPB (pNPP assay, pH 7.0, 3.0 mM pNPP); more than 50 µM against PTP1B (pNPP at Km of the PTP).
Consider `O=C(O)C(=O)Nc1ccc(C#Cc2ccc(C(F)(F)F)cc2F)cc1` [Compound 4v, 2-((4-((2-fluoro-4-(trifluoromethyl)phenyl)ethynyl)phenyl)amino)-2-oxoacetic Acid], for which the “Microsome Stability, % remaining” value in [1] turned out to be 72 ± 2.8%. Besides, the IC50 at SHP1 (pNPP at Km of the PTP), against SHP2 (pNPP at Km of the PTP) and against PTP1B (pNPP at Km of the PTP) was more than 30 µM in each case.
A word on the LogD: it is the decadic logarithm of the distribution of all forms, ionised or not, between an organic phase and buffer at a given pH. Low values mean lower lipophilicity, high ones higher lipophilicity. Turning to `O=C(O)C(=O)Nc1ccc(C#Cc2ccc(C(F)(F)F)cc2)cc1` [Compound 4k, 2-oxo-2-((4-((4-(trifluoromethyl)phenyl)ethynyl)phenyl)amino)acetic Acid], the IC50 on PTPμ, against VHR, at PTPα, against CD45, against DEP-1 and on PTPγ was more than 30 µM in each case. Moreover, the IC50 was more than 50 µM on SHP1 (pNPP at Km of the PTP); more than 50 µM against HePTP; more than 30 µM on CDC14A; more than 50 µM at SHP2 (pNPP at Km of the PTP); more than 30 µM at PTPβ; more than 50 µM on LYP. In addition, the IC50 was more than 50 µM at mPTPA; more than 30 µM against PTP-MEG2; more than 30 µM against STEP; more than 30 µM at MKP5; more than 30 µM against Laforin; more than 30 µM against MKP3. In addition, the IC50 at FAP-1 was more than 30 µM; at TC-PTP it was more than 50 µM; against PTP-PEST, more than 30 µM; against PTP1B (pNPP at Km of the PTP), more than 50 µM. Further, the “Aq. Sol (μM), kinetic solubility” value in [2] amounted to 22.4 µM. For the same compound, the “Microsome Stability, % remaining” value in [1] is 38 ± 1.6%. In series [3], this compound came in with a LogD of 1.97.
For `CN(C)c1cc(O)c(C(=O)O)cc1C#Cc1cccc(NC(=O)C(=O)O)c1` [Compound 4g, 5-((3-(carboxyformamido)phenyl)ethynyl)-4-(dimethylamino)-2-hydroxybenzoic Acid], the IC50 at PTPγ was more than 50 µM; against SHP1, 38.5 ± 4.2 µM; against SHP2 it was 47.5 ± 3.5 µM; against LYP it was more than 50 µM; at mPTPA, more than 50 µM; at MKP5, more than 50 µM. In addition, the IC50 against LMPTP-1 is 34.5 µM; on mPTPB, 0.16 µM; against TC-PTP, more than 50 µM; against PTP-PEST, more than 50 µM; on PTP1B, 45.1 ± 4.5 µM.
Turning to `O=C(O)C(=O)Nc1ccc(C#Cc2ccc(C(F)(F)F)cc2Br)cc1` [Compound 4u, 2-((4-((2-bromo-4-(trifluoromethyl)phenyl)ethynyl)phenyl)amino)-2-oxoacetic Acid], the “Microsome Stability, % remaining” value in [1] came to 60 ± 3.8%. For the same compound, the IC50 against SHP1 (pNPP at Km of the PTP) is 33.8 ± 6.8 µM; against SHP2 (pNPP at Km of the PTP) it was 15.2 ± 3.4 µM; against PTP1B (pNPP at Km of the PTP) it was 16.4 ± 2.9 µM.
With `O=C(O)C(=O)Nc1ccc(C#Cc2ccc(OCc3ccccc3)cc2)cc1` [Compound 4r, 2-((4-((4-(benzyloxy)phenyl)ethynyl)phenyl)amino)-2-oxoacetic Acid], the IC50 on SHP1 (pNPP at Km of the PTP) came to 16.8 ± 3.3 µM; against SHP2 (pNPP at Km of the PTP), 15.3 ± 2.1 µM; at PTP1B (pNPP at Km of the PTP), 38.9 ± 5 µM. In addition, in series [4], the “solubility (in words)” value is “poor solubility”.
Regarding `O=C(O)C(=O)Nc1ccc(C#Cc2ccc3ccccc3c2)cc1` [Compound 4q, 2-((4-(naphthalen-2-ylethynyl)phenyl)amino)-2-oxoacetic Acid], the IC50 on SHP1 (pNPP at Km of the PTP), on SHP2 (pNPP at Km of the PTP) and against PTP1B (pNPP at Km of the PTP) was more than 50 µM each time. The “solubility (in words)” value in [4] is on record as “poor solubility”.
